In PubChem BioAssay AID1259407 (Chemical Carcinogenesis Research Information System (CCRIS), 2018):
Active and inactive are the calls of the source. The rule behind the calls is not given here.

Test system: CCRIS mutagenicity, Ames/micronucleus/aberration tests
Assay: CCRIS mutagenicity studies

**Q.** What does the source list for `CC(=O)CC(=O)Nc1ccccc1`?
**A.** mutagenic call (End Point: In vitro chromosomal aberrations, Test System: Chinese hamster lung (CHL/IU) cells, Metabolic Activation: Rat, Liver, S9, Phenobarbital and 5,6-benzoflavone): inactive; negative; mutagenic call (Test System: AMES SALMONELLA TYPHIMURIUM, Strain/Indicator: TA97, Metabolic Activation: HAMSTER, LIVER, S-9, AROCLOR 1254 (10%), Method: PREINCUBATION): inactive; negative; mutagenic call (Test System: AMES SALMONELLA TYPHIMURIUM, Strain/Indicator: TA97, Metabolic Activation: HAMSTER, LIVER, S-9, AROCLOR 1254 (30%), Method: PREINCUBATION): inactive; negative; mutagenic call (Test System: AMES SALMONELLA TYPHIMURIUM, Strain/Indicator: TA97, Metabolic Activation: NONE, Method: PREINCUBATION): inactive; negative; mutagenic call (Test System: AMES SALMONELLA TYPHIMURIUM, Strain/Indicator: TA97, Metabolic Activation: RAT, LIVER, S-9, AROCLOR 1254 (10%), Method: PREINCUBATION): inactive; negative; mutagenic call (Test System: AMES SALMONELLA TYPHIMURIUM, Strain/Indicator: TA97, Metabolic Activation: RAT, LIVER, S-9, AROCLOR 1254 (30%), Method: PREINCUBATION): inactive; negative; mutagenic call (Test System: AMES SALMONELLA TYPHIMURIUM, Strain/Indicator: TA98, Metabolic Activation: HAMSTER, LIVER, S-9, AROCLOR 1254 (10%), Method: PREINCUBATION): inactive; negative; mutagenic call (Test System: AMES SALMONELLA TYPHIMURIUM, Strain/Indicator: TA98, Metabolic Activation: HAMSTER, LIVER, S-9, AROCLOR 1254 (30%), Method: PREINCUBATION): inactive; negative; mutagenic call (Test System: AMES SALMONELLA TYPHIMURIUM, Strain/Indicator: TA98, Metabolic Activation: NONE, Method: PREINCUBATION): inactive; negative; mutagenic call (Test System: AMES SALMONELLA TYPHIMURIUM, Strain/Indicator: TA98, Metabolic Activation: RAT, LIVER, S-9, AROCLOR 1254 (10%), Method: PREINCUBATION): inactive; negative; mutagenic call (Test System: AMES SALMONELLA TYPHIMURIUM, Strain/Indicator: TA98, Metabolic Activation: RAT, LIVER, S-9, AROCLOR 1254 (30%), Method: PREINCUBATION): inactive; negative; mutagenic call (Test System: AMES SALMONELLA TYPHIMURIUM, Strain/Indicator: TA100, Metabolic Activation: HAMSTER, LIVER, S-9, AROCLOR 1254 (10%), Method: PREINCUBATION): inactive; negative; mutagenic call (Test System: AMES SALMONELLA TYPHIMURIUM, Strain/Indicator: TA100, Metabolic Activation: HAMSTER, LIVER, S-9, AROCLOR 1254 (30%), Method: PREINCUBATION): inactive; negative; mutagenic call (Test System: AMES SALMONELLA TYPHIMURIUM, Strain/Indicator: TA100, Metabolic Activation: NONE, Method: PREINCUBATION): inactive; negative; mutagenic call (Test System: AMES SALMONELLA TYPHIMURIUM, Strain/Indicator: TA100, Metabolic Activation: RAT, LIVER, S-9, AROCLOR 1254 (10%), Method: PREINCUBATION): inactive; negative; mutagenic call (Test System: AMES SALMONELLA TYPHIMURIUM, Strain/Indicator: TA100, Metabolic Activation: RAT, LIVER, S-9, AROCLOR 1254 (30%), Method: PREINCUBATION): inactive; negative; mutagenic call (Test System: AMES SALMONELLA TYPHIMURIUM, Strain/Indicator: TA1535, Metabolic Activation: HAMSTER, LIVER, S-9, AROCLOR 1254 (10%), Method: PREINCUBATION): inactive; negative; mutagenic call (Test System: AMES SALMONELLA TYPHIMURIUM, Strain/Indicator: TA1535, Metabolic Activation: HAMSTER, LIVER, S-9, AROCLOR 1254 (30%), Method: PREINCUBATION): inactive; negative; mutagenic call (Test System: AMES SALMONELLA TYPHIMURIUM, Strain/Indicator: TA1535, Metabolic Activation: NONE, Method: PREINCUBATION): inactive; negative; mutagenic call (Test System: AMES SALMONELLA TYPHIMURIUM, Strain/Indicator: TA1535, Metabolic Activation: RAT, LIVER, S-9, AROCLOR 1254 (10%), Method: PREINCUBATION): inactive; negative; mutagenic call (Test System: AMES SALMONELLA TYPHIMURIUM, Strain/Indicator: TA1535, Metabolic Activation: RAT, LIVER, S-9, AROCLOR 1254 (30%), Method: PREINCUBATION): inactive; negative; mutagenic call (Test System: Ames Salmonella typhimurium, Strain/Indicator: TA98, Metabolic Activation: None, Method: Preincubation): inactive; negative; mutagenic call (Test System: Ames Salmonella typhimurium, Strain/Indicator: TA98, Metabolic Activation: Rat, Liver, S9, Sodium phenobarbital and 5,6-benzoflavone (10%), Method: Preincubation): inactive; negative; mutagenic call (Test System: Ames Salmonella typhimurium, Strain/Indicator: TA100, Metabolic Activation: None, Method: Preincubation): inactive; negative; mutagenic call (Test System: Ames Salmonella typhimurium, Strain/Indicator: TA100, Metabolic Activation: Rat, Liver, S9, Sodium phenobarbital and 5,6-benzoflavone (10%), Method: Preincubation): inactive; negative; mutagenic call (Test System: Ames Salmonella typhimurium, Strain/Indicator: TA1535, Metabolic Activation: None, Method: Preincubation): inactive; negative; mutagenic call (Test System: Ames Salmonella typhimurium, Strain/Indicator: TA1535, Metabolic Activation: Rat, Liver, S9, Sodium phenobarbital and 5,6-benzoflavone (10%), Method: Preincubation): inactive; negative; mutagenic call (Test System: Ames Salmonella typhimurium, Strain/Indicator: TA1537, Metabolic Activation: None, Method: Preincubation): inactive; negative; mutagenic call (Test System: Ames Salmonella typhimurium, Strain/Indicator: TA1537, Metabolic Activation: Rat, Liver, S9, Sodium phenobarbital and 5,6-benzoflavone (10%), Method: Preincubation): inactive; negative; mutagenic call (Test System: E. coli, Strain/Indicator: WP2uvrA/pKM101, Metabolic Activation: None, Method: Preincubation): active; positive; mutagenic call (Test System: E. coli, Strain/Indicator: WP2uvrA/pKM101, Metabolic Activation: Rat, Liver, S9, Sodium phenobarbital and 5,6-benzoflavone (10%), Method: Preincubation): active; positive
